This test addresses T1, IL-17A/A (Homo sapiens, UniProt Q16552).
T1 construct: purchased Genscript Z03228
T1 sequence (Q16552 24-155): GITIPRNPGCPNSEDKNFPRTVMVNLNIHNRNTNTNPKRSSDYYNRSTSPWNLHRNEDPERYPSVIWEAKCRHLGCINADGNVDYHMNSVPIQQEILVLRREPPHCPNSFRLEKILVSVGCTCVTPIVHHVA
Kind of test: IL-17A/A HEK-Blue cell assay. In kind it is cell-based. The note with it: HEK-Blue IL-17A reporter cell line (HEK 293), IL-17A/A stimulation, 20 hours incubation, SEAP read at A630. Put shortly: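 IC50 came from a 4-parameter fit of SEAP read at A630 (Quanti-Blue). Compound was titrated to a top final concentration of 10, 1 or 0.3 uM with 0.1% final DMSO and added just before IL-17A/A. Incubation lasted 20 hours in HEK293 cells engineered with IL-17RA, IL-17RC, Act1 and an NFκB-SEAP reporter.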

Drawing on patent US20250346602A1, “LACTAM SUBSTITUTED IMIDAZOPYRIDAZINE IL-17A MODULATORS AND USES THEREOF” (DICE ALPHA, INC., priority 2022, published 2025), this text covers IC50 for 20 molecules.

On to `Cc1nonc1C(=O)N[C@H](c1cn2nc(CC3CCNC3=O)ccc2n1)C1CCCCCC1` (single isomer, unassigned) [Compound 14, N-((1 S)-cycloheptyl(6-((2-oxopyrrolidin-3-yl)methyl)imidazo[1,2-b]pyridazin-2-yl)methyl)-4-methyl-1,2,5-oxadiazole-3-carboxamide], for which the IC50 lay in the range of 100 to 1000 nM. With `O=C(N[C@H](c1cn2nc(CC3C[C@@H](C(F)(F)F)CNC3=O)ccc2n1)C1CCC(F)(F)CC1)c1ccnn1CC(F)F` (stereo partly drawn) [Compound 106, N-((1S)-(4,4-difluorocyclohexyl)(6-(((5R)-2-oxo-5-(trifluoromethyl)piperidin-3-yl)methyl)imidazo[1,2-b]pyridazin-2-yl)methyl)-1-(2,2-difluoroethyl)-1H-pyrazole-5-carboxamide], the IC50 lay within 100 to 1000 nM. In the case of `CCn1nccc1C(=O)N[C@H](c1cn2nc(CC3CCCNC3=O)ccc2n1)C1CCC(F)(F)CC1` (single isomer, unassigned) [Compound 13, N-((1 S)-(4,4-difluorocyclohexyl)(6-((2-oxopiperidin-3-yl)methyl)imidazo[1,2-b]pyridazin-2-yl)methyl)-1-ethyl-1H-pyrazole-5-carboxamide] it was 100 to 1000 nM; in that of `CC(C)c1nonc1C(=O)N[C@H](c1cn2nc(CC3C[C@@H](C(F)(F)F)CNC3=O)ccc2n1)C1CCC(F)(F)CC1` (stereo partly drawn) [Compound 117, N-((1S)-(4,4-difluorocyclohexyl)(6-(((5R)-2-oxo-5-(trifluoromethyl)piperidin-3-yl)methyl)imidazo[1,2-b]pyridazin-2-yl)methyl)-4-isopropyl-1,2,5-oxadiazole-3-carboxamide], less than 100 nM. In the case of `CCn1nccc1C(=O)N[C@H](c1cn2nc(CC3C[C@@H](C(F)(F)F)NC3=O)ccc2n1)C(C1CC1)C1CC1` (single isomer, unassigned) [Compound 8] it was 100 to 1000 nM; in that of `O=C1NC[C@H](C(F)(F)F)CC1Cc1ccc2nc([C@@H](NC(=O)C3CC34CC(F)(F)C4)C3CCC(F)(F)CC3)cn2n1` (single isomer, unassigned) [Compound 130], greater than 1000 nM; in that of `CCn1nccc1C(=O)N[C@H](c1cn2nc(CC3C(=O)NCC3C(F)(F)F)ccc2n1)C(C1CC1)C1CC1` (single isomer, unassigned) [Compound 45], greater than 1000 nM. Turning to `CCn1nccc1C(=O)N[C@H](c1cn2nc(C(COC)C3C[C@@H](C(F)(F)F)CNC3=O)ccc2n1)C(C1CC1)C1CC1` (single isomer, unassigned) [Compound 62], the concentration for half-maximal inhibition (IC50) was 100 to 1000 nM. In the case of `CCn1nccc1C(=O)N[C@H](c1cn2nc(CC3C[C@@H](C(F)(F)F)CNC3=O)c(C)cc2n1)C1CCC(F)(F)CC1` (single isomer, unassigned) [Compound 82] it was greater than 1000 nM; in that of `CCc1nonc1C(=O)N[C@H](c1cn2nc(C[C@H]3CCCNC3=O)ccc2n1)C(C1CC1)C1CC1` [Compound 35, N—((S)-2,2-dicyclopropyl-1-(6-(((R)-2-oxopiperidin-3-yl)methyl)imidazo[1,2-b]pyridazin-2-yl)ethyl)-4-ethyl-1,2,5-oxadiazole-3-carboxamide], 100 to 1000 nM; in that of `Cc1nonc1C(=O)N[C@H](c1cn2nc(C[C@H]3C[C@@H](C(F)(F)F)NC3=O)ccc2n1)C1CCC(F)(F)CC1` [Compound 18, N—((S)-(4,4-difluorocyclohexyl)(6-(((3R,5S)-2-oxo-5-(trifluoromethyl)pyrrolidin-3-yl)methyl)imidazo[1,2-b]pyridazin-2-yl)methyl)-4-methyl-1,2,5-oxadiazole-3-carboxamide], greater than 1000 nM. In the case of `CCn1nccc1C(=O)N[C@H](c1cn2nc(CC3C[C@@H](C(F)(F)F)CNC3=O)ccc2n1)C1CCC2(CC1)CC2` (single isomer, unassigned) [Compound 188] it was 100 to 1000 nM; in that of `CCn1nccc1C(=O)N[C@H](c1cn2nc(CC3CC(F)(F)CNC3=O)ccc2n1)C1CCCCCC1` (single isomer, unassigned) [Compound 9, N-((1 S)-cycloheptyl(6-((5,5-difluoro-2-oxopiperidin-3-yl)methyl)imidazo[1,2-b]pyridazin-2-yl)methyl)-1-ethyl-1H-pyrazole-5-carboxamide], less than 100 nM. In the case of `O=C(N[C@H](c1cn2nc(CC3C[C@@H](C(F)(F)F)CNC3=O)ccc2n1)C1CCC(F)(F)CC1)c1conc1CC(F)F` (stereo partly drawn) [Compound 120, N-((1S)-(4,4-difluorocyclohexyl)(6-(((5R)-2-oxo-5-(trifluoromethyl)piperidin-3-yl)methyl)imidazo[1,2-b]pyridazin-2-yl)methyl)-3-(2,2-difluoroethyl)isoxazole-4-carboxamide] it was 100 to 1000 nM. As for `CC[C@@H](c1ccc(F)cc1)C(NC(=O)c1ccnn1CC)c1cn2nc(CC3CC(F)(F)CNC3=O)ccc2n1` (single isomer, unassigned) [Compound 30], the IC50 fell in the range of 100 to 1000 nM.

Turning to `CCn1nccc1C(=O)N[C@H](c1cn2nc(CC3CC(C(F)(F)F)CNC3=O)ccc2n1)C1CCCCCC1` (single isomer, unassigned) [Compound 195], the IC50 was greater than 1000 nM. In the case of `O=C(N[C@H](c1cn2nc(CC3C[C@@H](C(F)(F)F)CNC3=O)ccc2n1)C1CCC(F)(F)CC1)c1conc1C12CC(F)(C1)C2` (stereo partly drawn) [Compound 140, N-((1S)-(4,4-difluorocyclohexyl)(6-(((5R)-2-oxo-5-(trifluoromethyl)piperidin-3-yl)methyl)imidazo[1,2-b]pyridazin-2-yl)methyl)-3-(3-fluorobicyclo[1.1.1]pentan-1-yl)isoxazole-4-carboxamide] it was 100 to 1000 nM; in that of `O=C(N[C@H](c1cn2nc(CC3C[C@@H](C(F)(F)F)CNC3=O)ccc2n1)[C@@H]1CCCC(F)(F)C1)c1conc1C1CC1` (stereo partly drawn) [Compound 147, 3-cyclopropyl-N-((1S)—((R)-3,3-difluorocyclohexyl)(6-(((5R)-2-oxo-5-(trifluoromethyl)piperidin-3-yl)methyl)imidazo[1,2-b]pyridazin-2-yl)methyl)isoxazole-4-carboxamide], 100 to 1000 nM; in that of `CCn1nccc1C(=O)N[C@H](c1cn2nc(CC3C[C@H](C(F)(F)F)NC3=O)ccc2n1)C1CCC(F)(F)CC1` (single isomer, unassigned) [Compound 23], greater than 1000 nM. Then `CCn1nccc1C(=O)NC(c1cn2ncc(CC3CCC(C(F)(F)F)NC3=O)cc2n1)C1CCC(C)CC1` (single isomer, unassigned) [Compound 213], with greater than 1000 nM.

As a reminder, the IC50 is the point on the concentration scale where inhibition reaches its midpoint.
